Reference: patent US6677310B1, “Ring-expanded nucleosides and nucleotides” (Nabi, priority 1999, dated 2004)

Assays:
Hepatitis B virus (HBV) = test: Anti-HBV assay in 2.2.15 cells (virion DNA, HBV RI); type: cell-based
Method: The anti-HBV assays were performed according to the published protocol of Korba and Milman, (Korba, B. E.; Milman, G. Antiviral Res., 15, 217 1991), using cultures of 2.2.15 cells. In brief, the assay consisted of (a) seeding the chronically HBV-producing human liver cells (Acs et al. Proc. Nat. Acad. Sci., 84, 464 1987) into 24-well tissue culture plates, and growing to confluence, (b) adding test compounds daily for a continuous 9-day period, harvesting culture media after day 9 and (c) lysing treated cells 24 hours following day 9 of treatment for the analysis of extracellular virion DNA and intracellular HBV genomic forms.
Anti-HBV activity and the toxicity against confluent 2.2.15 cells were determined by the previously described procedure (Korba, B. E., et al. Antivir. Res., 19:55-70, 1992; Korba, B. E., et al. Antivir. Res., 15:217-228, 1991). Briefly, confluent cultures of HBV transfected 2.2.15 cells were maintained on either 96-well or 24-well flat-bottomed tissue culture plates in RPMI 1640 medium with 2% fetal bovine serum (FBS). The cells were treated with test compounds daily for nine consecutive days. The culture media were harvested on day 9 to quantify the amount of virion DNA. On day 10, the cells were lysed to quantify the amount of intracellular HBV replicative intermediates (RI). The quantification of virion DNA and the HBV RI were done by blot hybridization methods (Korba, B. E., et al. Antivir. Res., 19:55-70, 1992; Korba, B. E., et al. Antivir. Res., 15:217-228, 1991). Cellular toxicity against separate cultures of confluent 2.2.15 cells was measured after treatment with the compounds for nine days under identical culture conditions as those used for the antiviral assay (Korba, B. E., et al. Antivir. Res., 19:55-70, 1992). Uptake of neutral red dye by treated cells was compared with dye uptake by untreated control cells (Korba, B. E., et al. Antivir. Res., 19:55-70, 1992).

2.2.15 cells = test: Toxicity in confluent 2.2.15 cells (neutral red dye uptake); type: cell-based, human; conditions: confluent 2.2.15 cells, 9 days, neutral red dye uptake; read-out: CC50
Method: Anti-HBV activity and the toxicity against confluent 2.2.15 cells were determined by the previously described procedure (Korba, B. E., et al. Antivir. Res., 19:55-70, 1992; Korba, B. E., et al. Antivir. Res., 15:217-228, 1991). Briefly, confluent cultures of HBV transfected 2.2.15 cells were maintained on either 96-well or 24-well flat-bottomed tissue culture plates in RPMI 1640 medium with 2% fetal bovine serum (FBS). The cells were treated with test compounds daily for nine consecutive days. […] Cellular toxicity against separate cultures of confluent 2.2.15 cells was measured after treatment with the compounds for nine days under identical culture conditions as those used for the antiviral assay (Korba, B. E., et al. Antivir. Res., 19:55-70, 1992). Uptake of neutral red dye by treated cells was compared with dye uptake by untreated control cells (Korba, B. E., et al. Antivir. Res., 19:55-70, 1992).

[1] = test system: panel of cancer cell lines; test: In vitro anti-cancer assay, panel of cancer cell lines (sulforhodamine B); type: cell-based, human; conditions: leukemia, non-small cell lung, colon, CNS, melanoma, ovarian, renal, prostate and breast cancer cell lines; read-out: GI50 values, range over the panel
SR = test: SRB anti-cancer assay, Leukemia; type: cell-based, human; conditions: 48 h
HOP-92 = type: cell-based, human; conditions: HOP-92 (Non-Small Cell Lung Cancer), 48 h
HCT-116 = test: SRB anti-cancer assay, Colon Cancer; type: cell-based, human; conditions: HCT-116 (Colon Cancer), 48 h
SF-268 = test: SRB anti-cancer assay, CNS Cancer; type: cell-based, human; conditions: SF-268 (CNS Cancer), 48 h
LOX IMVI = test: SRB anti-cancer assay, Melanoma; type: cell-based, human; conditions: 48 h
SK-MEL-2 = test: SRB anti-cancer assay, Melanoma; type: cell-based, human; conditions: SK-MEL-2 (Melanoma), 48 h
UACC-257 = test: SRB anti-cancer assay, Melanoma; type: cell-based, human; conditions: UACC-257 (Melanoma), 48 h
IGROV1 = test: SRB anti-cancer assay, Ovarian Cancer; type: cell-based, human; conditions: 48 h
OVCAR-5 = test: SRB anti-cancer assay, Ovarian Cancer; type: cell-based, human; conditions: OVCAR-5 (Ovarian Cancer), 48 h
OVCAR-8 = test: SRB anti-cancer assay, Ovarian Cancer; type: cell-based, human; conditions: OVCAR-8 (Ovarian Cancer), 48 h
786-0 = test: SRB anti-cancer assay, Renal Cancer; type: cell-based, human; conditions: 786-0 (Renal Cancer), 48 h
A498 = test: SRB anti-cancer assay, Renal Cancer; type: cell-based, human; conditions: 48 h
SN12C = test: SRB anti-cancer assay, Renal Cancer; type: cell-based, human; conditions: 48 h
TK-10 = test: SRB anti-cancer assay, Renal Cancer; type: cell-based, human; conditions: TK-10 (Renal Cancer), 48 h
UO-31 = test: SRB anti-cancer assay, Renal Cancer; type: cell-based, human; conditions: UO-31 (Renal Cancer), 48 h
MDA-MB-435 = test: SRB anti-cancer assay, Breast Cancer; type: cell-based, human; conditions: MDA-MB-435 (Breast Cancer), 48 h
BT-549 = test: SRB anti-cancer assay, Breast Cancer; type: cell-based, human; conditions: BT-549 (Breast Cancer), 48 h
T-47D = test: SRB anti-cancer assay, Breast Cancer; type: cell-based, human; conditions: T-47D (Breast Cancer), 48 h
[2] = read-out: LC50 (the source's name)

With N=c1nc(N)c2ncn([C@@H]3O[C@H](CO)[C@@H](O)[C@H]3O)c2c(N)n1 [Compound 14-2, 4,8-Diamino-6H-6-imino-1-β-D-ribofuranosylimidazo[4,5-e][1,3]diazepine] the “HBV RI, percentage of control” value (Hepatitis B virus (HBV); 10 μM, day 9, 2.2.15 cells) was 6 ± 1 %, the “Virion DNA, percentage of control” value (Hepatitis B virus (HBV); 10 μM, day 9, 2.2.15 cells) was 1 ± 1 % and the EC90 (Hepatitis B virus (HBV); extracellular HBV virion DNA, 10 fold inhibition, 9 days, read-out: EC90 Virion) was 4.7 ± 0.5 µM. The EC50 (Hepatitis B virus (HBV); extracellular HBV virion DNA, 9 days, read-out: EC50 Virion) was 397 ± 30 nM, the CC50 (2.2.15 cells) was 501 µM and the GI50 [1] was 1 to 10 µM. The GI50 (SR) was > 100 µM, the LC50 (concentration killing 50% of cells) (SR) was > 100 µM and the TGI (SR) was >100 µM. For the same compound, the GI50 (HOP-92) was 19.2 µM, the TGI (HOP-92) was 40 µM and the CC50 (HOP-92; [2]) was 83.7 µM. It also gave a GI50 (HCT-116) of 13.3 µM, a TGI (HCT-116) of 26.8 µM and a CC50 (HCT-116; [2]) of 54.2 µM. The GI50 (SF-268) was 15.7 µM, the TGI (SF-268) was 34.8 µM and the CC50 (SF-268; [2]) was 77.2 µM. The GI50 (LOX IMVI) was 7.16 µM, the TGI (LOX IMVI) was 21.3 µM and the CC50 (LOX IMVI; [2]) was 51.2 µM. It also gave a GI50 (SK-MEL-2) of 15.4 µM, an LC50 (SK-MEL-2) of 76.9 µM and a TGI (SK-MEL-2) of 34.5 µM. For the same compound, the GI50 (UACC-257) was 12.7 µM, the TGI (UACC-257) was 25.8 µM and the CC50 (UACC-257; [2]) was 52.3 µM. For the same compound, the GI50 (IGROV1) was 14 µM, the TGI (IGROV1) was 30.5 µM and the CC50 (IGROV1; [2]) was 66.3 µM. For the same compound, the GI50 (OVCAR-5) was 16.8 µM, the TGI (OVCAR-5) was 32.7 µM and the CC50 (OVCAR-5; [2]) was 64 µM. The GI50 (OVCAR-8) was 13.2 µM, the LC50 (50% lethal concentration) (OVCAR-8) was 75.3 µM and the TGI (OVCAR-8) was 31.5 µM. The GI50 (786-0) was 15.7 µM, the TGI (786-0) was 47 µM and the GI50 (A498) was 23.1 µM. The TGI (A498) was 74.7 µM, the CC50 (A498; [2]) was > 100 µM and the GI50 (SN12C) was 14.5 µM. It also gave a TGI (SN12C) of 29.8 µM, a CC50 (SN12C; [2]) of 61.2 µM and a GI50 (TK-10) of 15.1 µM. It also gave a TGI (TK-10) of 31.2 µM, a CC50 (TK-10; [2]) of 64.6 µM and a GI50 (UO-31) of 13.7 µM. It also gave a TGI (UO-31) of 28.9 µM, a CC50 (UO-31; [2]) of 61.2 µM and a GI50 (MDA-MB-435) of 12.8 µM. For the same compound, the TGI (MDA-MB-435) was 29.1 µM, the CC50 (MDA-MB-435; [2]) was 65.9 µM and the GI50 (BT-549) was 15.6 µM. It also gave a TGI (BT-549) of 32.2 µM, a CC50 (BT-549; [2]) of 66.4 µM and a GI50 (T-47D) of 13.3 µM. The TGI (T-47D) was 39.6 µM and the CC50 (T-47D; [2]) was > 100 µM.
